Source: US9855253B2, “Pharmaceutical composition containing FK506 derivative for treating fungal infection caused by genus Cryptococcus and genus Candida and use thereof” (INTRON BIOTECHNOLOGY CO., LTD., priority 2014, dated 2018)

How the values were obtained:
Candida albicans = test: serum sensitivity of Candida albicans as a function of time (FIG. 3); format: cell-based; conditions: result in words
Excerpt: FIG. 3 is a graph showing the inhibitory activity of a composition according to one embodiment of the present invention against Candida albicans as a function of time. FIG. 3 is a graph showing an increased or decreased change in the serum sensitivity of Candida albicans for 31-O-demethyl-FK506 that is FK506 derivative. Lower serum sensitivity with the passage of time indicates higher antifungal activity.

Cryptococcus neoformans = test: standard agar diffusion method (paper disk), antifungal activity; format: cell-based; conditions: for zone of inhibition at 10 µg/mL: Cryptococcus neoformans treated with 10 μg/ml, 6 mm disk, PDA medium, incubated 2-3 days, read-out: diameters of the inhibition zones; for inhibition zones at higher concentrations (FIGS. 1 and 2): concentrations of 10 μg/ml and 40 μg/ml
Method: The antifungal activities of FK506 derivatives against fungi such as Cryptococcus neoformans and Candida albicans, which are human pathogenic yeasts, were analyzed by the standard agar diffusion method (Murray et al., 1995 Manual of clinical microbiology (6th ed.), Washington, ASM Press, pp. 1275-1294), 100 μL of a standardized inoculam containing 10^7 CFU/ml, of a fungal suspension was uniformly plated in a Petri dish containing 20 mL of potato-dextrose agar (PDA) medium, and was dried for 5 minutes. A sterilized Whatman No. 1 filter paper disk baying a diameter of 6 mm was wet with each of 0.1 μg, 1 μg, 10 μg and 40 μg/ml of FK506 derivative dissolved in the same solvent as that used for extraction. As a control, an untreated disk and a disk wet with FK506 were used. Each plate was incubated at 30° C. and 37° C. for 2-3 days, and then the antifungal activity of each FK506 derivative was evaluated by comparing the diameters of inhibition zones against Cryptococcus neoformans and Candida albicans. The experiment for analysis of the antifungal activity was repeated at least three times. […] The diameters of the inhibition zones are shown in units of mm.

[1] = background statement; result in words; cited from earlier work

With `C=CC[C@@H]1/C=C(\C)C[C@H](C)C[C@H](OC)[C@H]2O[C@@](O)(C(=O)C(=O)N3CCCC[C@H]3C(=O)O[C@H](/C(C)=C/C3CC[C@@H](O)[C@H](O)C3)[C@H](C)C(O)CC1=O)[C@H](C)C[C@@H]2OC` (stereo in doubt) [Formula (I), 31-O-demethyl-FK506] the “inhibitory activity against Candida albicans compared with FK506, late time points (FIG. 3)” value (Candida albicans; from 6 hours after treatment) was “maintained inhibitory activity higher than FK506”, the “inhibitory activity against Candida albicans compared with FK506 (FIG. 3)” value (Candida albicans; serum sensitivity over time) was “almost equal to that of FK506” and the zone of inhibition at 10 µg/mL (Cryptococcus neoformans) was 26.4 mm. The “inhibitory activity against Cryptococcus neoformans compared with FK506” value (Cryptococcus neoformans; comparison with FK506, result in words) was “inhibitory activity higher than FK506”, the “inhibition zones at higher concentrations (FIGS. 1 and 2)” value (Cryptococcus neoformans; result in words) was “large inhibition zones” and the “inhibitory activity against Cryptococcus neoformans (FIGS. 1 and 2)” value (“inhibitory activity … (FIGS. 1 and 2)” for short) (Cryptococcus neoformans; result in words) was “had inhibitory activity”.

For `C=CC[C@@H]1/C=C(\C)C[C@H](C)C[C@H](OC)[C@H]2O[C@@](O)(C(=O)C(=O)N3CCCC[C@H]3C(=O)O[C@H](/C(C)=C/[C@@H]3CC[C@@H](O)[C@H](OC)C3)[C@H](C)[C@@H](O)CC1=O)[C@H](C)C[C@@H]2OC` [FK506], the “toxicity or side effects relative to Cyclosporine A” value [1] is given as “comparable to Cyclosporine A” and the zone of inhibition at 10 µg/mL (Cryptococcus neoformans) is given as 16.8 mm.

In the case of `C=CC[C@@H]1/C=C(\C)C[C@H](C)C[C@H](OC)[C@H]2O[C@@](O)(CC(=O)N3CCCC[C@H]3C(=O)O[C@H](/C(C)=C/C3CC[C@@H](O)[C@H](OC)C3)[C@H](C)[C@H](O)CC1=O)[C@H](C)C[C@@H]2OC` (stereo partly shown) [Formula (II), 9-deoxo-FK506], the zone of inhibition at 10 µg/mL (Cryptococcus neoformans) is reported as 21.6 mm and the “inhibitory activity … (FIGS. 1 and 2)” value (Cryptococcus neoformans; result in words) is reported as “had inhibitory activity”.

In the case of `C=CC[C@@H]1/C=C(\C)C[C@H](C)C[C@H](OC)[C@H]2O[C@@](O)(CC(=O)N3CCCC[C@H]3C(=O)O[C@H](/C(C)=C/C3CC[C@@H](O)[C@H](O)C3)[C@H](C)[C@H](O)CC1=O)[C@H](C)C[C@@H]2OC` (stereo partly shown) [Formula (III), 9-deoxo-31-O-demethyl-FK506], the zone of inhibition at 10 µg/mL (Cryptococcus neoformans) is reported as 21.6 mm, the “inhibition zones at higher concentrations (FIGS. 1 and 2)” value (Cryptococcus neoformans; result in words) is reported as “large inhibition zones” and the “inhibitory activity … (FIGS. 1 and 2)” value (Cryptococcus neoformans; result in words) is reported as “had inhibitory activity”.
